Data as given in patent US6355799B1, “Substituted benzene compounds, process for their preparation, and herbicidal and defoliant compositions containing them” (ISK Americas Incorporated, priority 1997, dated 2002).

Columns and labels:
Type in all cases: in vivo
[1] = system: upland rice (Oryza sp., var. Tebonnet, RICE); test: Pre-emerge test, crop safety; conditions: rating scale 0-100, 14 days after application
Procedure, shortened: (§1)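 Compounds in acetone were track-sprayed at 187 l/ha, 15–1000 g ai/ha, onto sandy loam pots. Pre-emerge seeds were sown one day before spraying, with surface watering afterwards. Post-emerge plants were at the 2–3 leaf stage and sprayed with 0.25% v/v non-ionic surfactant. Injury was rated 0–100 at 14 days.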

[2] = system: field corn (Zea mays L., var. Dekalb 535, CORN); test: Pre-emerge test, crop safety; conditions: rating scale 0-100, 14 days after application
Procedure, shortened: as §1

[3] = system: redroot pigweed (Amaranthus retroflexus, AMARE); test: Pre-emerge test, greenhouse herbicide activity screening; conditions: rating scale 0-100, 14 days after application
Procedure, shortened: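 Visual ratings on a 0-100 scale (0 no damage, 100 all plants dead) were taken at 14 days after treatment. Rates of 15-1000 g ai/ha in acetone, 187 l/ha, were sprayed onto soil one day after planting (pre-emerge) or onto 2-3 leaf plants with 0.25% v/v surfactant (post-emerge).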

[4] = system: upland rice (Oryza sp., var. Tebonnet, RICE); test: Post-emerge test, crop safety; conditions: rating scale 0-100 (0 no damage, 100 complete death), 14 days after application
Procedure, shortened: (§2)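 Herbicidal damage is scored 0 (none) to 100 (complete plant death) two weeks after a simulated field spray. Rates span 15–1000 g ai/ha, delivered in acetone at 187 l/ha. For post-emergence treatments, plants have 2–3 leaves and the spray carries 0.25% v/v non-ionic surfactant.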

[5] = system: field corn (Zea mays L., var. Dekalb 535, CORN); test: Post-emerge test, crop safety; conditions: rating scale 0-100 (0 no damage, 100 complete death), 14 days after application
Procedure, shortened: as §2

[6] = system: barnyardgrass (Echinochloa crus-galli, ECHCG); test: Pre-emerge test, greenhouse herbicide activity screening; conditions: rating scale 0-100, 14 days after application
Procedure, shortened: as §2

[7] = system: johnsongrass (Sorghum halepense, SORHA); test: as above; conditions: rating scale 0-100, 14 days after application
Procedure, shortened: as §2

[8] = system: green foxtail (Setaria viridis, SETVI); test: as above; conditions: rating scale 0-100, 14 days after application
Procedure, shortened: as §2

[9] = system: velvetleaf (Abutilon theophrasti, ABUTH); test: as above; conditions: rating scale 0-100, 14 days after application
Procedure, shortened: as §2

[10] = system: sicklepod (Cassia obtusifolia, CASOB); test: as above; conditions: rating scale 0-100, 14 days after application
Procedure, shortened: as §2

[11] = system: ivyleaf morningglory (Ipomoea hederacea, IPOHE); test: as above; conditions: rating scale 0-100, 14 days after application
Procedure, shortened: as §2

[12] = system: lambsquarters (Chenopodium album, CHEAL); test: as above; conditions: rating scale 0-100, 14 days after application
Procedure, shortened: as §2

[13] = system: large crabgrass (Digitaria sanguinalis, DIGSA); test: as above; conditions: rating scale 0-100, 14 days after application
Procedure, shortened: as §2

[14] = system: common ragweed (Ambrosia artemisizfolia L., AMBEL); test: Post-emerge test, greenhouse herbicide activity screening; conditions: rating scale 0-100 (0 no damage, 100 complete death), 14 days after application
Procedure, shortened: (§3)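 Fourteen days after spraying, crop and weed injury was graded visually from 0, no effect, to 100, every plant dead. Test substances were dissolved in acetone and applied at 15–1000 g ai/ha with a flat-fan nozzle. Application was either pre-emergence, one day after sowing, or post-emergence at the 2–3 leaf stage.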

[15] = system: barnyardgrass (Echinochloa crus-galli, ECHCG); test: as above; conditions: rating scale 0-100 (0 no damage, 100 complete death), 14 days after application
Procedure, shortened: as §3

[16] = system: johnsongrass (Sorghum halepense, SORHA); test: as above; conditions: rating scale 0-100 (0 no damage, 100 complete death), 14 days after application
Procedure, shortened: as §3

[17] = system: green foxtail (Setaria viridis, SETVI); test: as above; conditions: rating scale 0-100 (0 no damage, 100 complete death), 14 days after application
Procedure, shortened: as §3

[18] = system: velvetleaf (Abutilon theophrasti, ABUTH); test: as above; conditions: rating scale 0-100 (0 no damage, 100 complete death), 14 days after application
Procedure, shortened: as §3

[19] = system: sicklepod (Cassia obtusifolia, CASOB); test: as above; conditions: rating scale 0-100 (0 no damage, 100 complete death), 14 days after application
Procedure, shortened: as §3

[20] = system: ivyleaf morningglory (Ipomoea hederacea, IPOHE); test: as above; conditions: rating scale 0-100 (0 no damage, 100 complete death), 14 days after application
Procedure, shortened: as §3

[21] = system: lambsquarters (Chenopodium album, CHEAL); test: as above; conditions: rating scale 0-100 (0 no damage, 100 complete death), 14 days after application
Procedure, shortened: as §3

[22] = system: redroot pigweed (Amaranthus retroflexus, AMARE); test: as above; conditions: rating scale 0-100 (0 no damage, 100 complete death), 14 days after application
Procedure, shortened: as §3

[23] = system: large crabgrass (Digitaria sanguinalis, DIGSA); test: as above; conditions: rating scale 0-100 (0 no damage, 100 complete death), 14 days after application
Procedure, shortened: as §3

CCOC(=O)C(Br)Cc1c(OC)c(Cl)cc(F)c1-n1c(=O)cc(C(F)(F)F)n(C)c1=O (single isomer, unassigned) [14-32]
Pre-emerge phytotoxicity rating, crop damage RICE ([1]; 63 g ai/ha): 0 | Pre-emerge phytotoxicity rating, crop damage RICE ([1]; 250 g ai/ha): 10 | Pre-emerge phytotoxicity rating, crop damage CORN ([2]; 63 g ai/ha): 0 | Pre-emerge phytotoxicity rating, crop damage CORN ([2]; 250 g ai/ha): 0 | Pre-emerge herbicidal activity, phytotoxicity rating AMARE ([3]; 63 g ai/ha): 100 | Pre-emerge herbicidal activity, phytotoxicity rating AMARE ([3]; 250 g ai/ha): 100 | Post-emerge phytotoxicity rating RICE (crop damage) ([4]; Rate 63 g ai/ha): 0 | Post-emerge phytotoxicity rating RICE (crop damage) ([4]; Rate 250 g ai/ha): 0 | Post-emerge phytotoxicity rating CORN (crop damage) ([5]; Rate 63 g ai/ha): 0 | Post-emerge phytotoxicity rating CORN (crop damage) ([5]; Rate 250 g ai/ha): 0 | Pre-emerge herbicidal activity, phytotoxicity rating ECHCG ([6]; 63 g ai/ha): 0 | Pre-emerge herbicidal activity, phytotoxicity rating ECHCG ([6]; 250 g ai/ha): 30 | Pre-emerge herbicidal activity, phytotoxicity rating SORHA ([7]; 63 g ai/ha): 0 | Pre-emerge herbicidal activity, phytotoxicity rating SORHA ([7]; 250 g ai/ha): 20 | Pre-emerge herbicidal activity, phytotoxicity rating SETVI ([8]; 63 g ai/ha): 0 | Pre-emerge herbicidal activity, phytotoxicity rating SETVI ([8]; 250 g ai/ha): 40 | Pre-emerge herbicidal activity, phytotoxicity rating ABUTH ([9]; 63 g ai/ha): 10 | Pre-emerge herbicidal activity, phytotoxicity rating ABUTH ([9]; 250 g ai/ha): 50 | Pre-emerge herbicidal activity, phytotoxicity rating CASOB ([10]; 63 g ai/ha): 0 | Pre-emerge herbicidal activity, phytotoxicity rating CASOB ([10]; 250 g ai/ha): 30 | Pre-emerge herbicidal activity, phytotoxicity rating IPOHE ([11]; 63 g ai/ha): 0 | Pre-emerge herbicidal activity, phytotoxicity rating IPOHE ([11]; 250 g ai/ha): 0 | Pre-emerge herbicidal activity, phytotoxicity rating CHEAL ([12]; 63 g ai/ha): 80 | Pre-emerge herbicidal activity, phytotoxicity rating CHEAL ([12]; 250 g ai/ha): 100 | Pre-emerge herbicidal activity, phytotoxicity rating DIGSA ([13]; 63 g ai/ha): 20 | Pre-emerge herbicidal activity, phytotoxicity rating DIGSA ([13]; 250 g ai/ha): 100 | Post-emerge Herbicidal Activity, phytotoxicity rating AMBEL ([14]; Rate 63 g ai/ha): 40 | Post-emerge Herbicidal Activity, phytotoxicity rating AMBEL ([14]; Rate 250 g ai/ha): 40 | Post-emerge Herbicidal Activity, phytotoxicity rating ECHCG ([15]; Rate 63 g ai/ha): 100 | Post-emerge Herbicidal Activity, phytotoxicity rating ECHCG ([15]; Rate 250 g ai/ha): 100 | Post-emerge Herbicidal Activity, phytotoxicity rating SORHA ([16]; Rate 63 g ai/ha): 0 | Post-emerge Herbicidal Activity, phytotoxicity rating SORHA ([16]; Rate 250 g ai/ha): 10 | Post-emerge Herbicidal Activity, phytotoxicity rating SETVI ([17]; Rate 63 g ai/ha): 40 | Post-emerge Herbicidal Activity, phytotoxicity rating SETVI ([17]; Rate 250 g ai/ha): 70 | Post-emerge Herbicidal Activity, phytotoxicity rating ABUTH ([18]; Rate 63 g ai/ha): 90 | Post-emerge Herbicidal Activity, phytotoxicity rating ABUTH ([18]; Rate 250 g ai/ha): 95 | Post-emerge Herbicidal Activity, phytotoxicity rating CASOB ([19]; Rate 63 g ai/ha): 20 | Post-emerge Herbicidal Activity, phytotoxicity rating CASOB ([19]; Rate 250 g ai/ha): 40 | Post-emerge Herbicidal Activity, phytotoxicity rating IPOHE ([20]; Rate 63 g ai/ha): 0 | Post-emerge Herbicidal Activity, phytotoxicity rating IPOHE ([20]; Rate 250 g ai/ha): 20 | Post-emerge Herbicidal Activity, phytotoxicity rating CHEAL ([21]; Rate 63 g ai/ha): 0 | Post-emerge Herbicidal Activity, phytotoxicity rating CHEAL ([21]; Rate 250 g ai/ha): 80 | Post-emerge Herbicidal Activity, phytotoxicity rating AMARE ([22]; Rate 63 g ai/ha): 95 | Post-emerge Herbicidal Activity, phytotoxicity rating AMARE ([22]; Rate 250 g ai/ha): 100 | Post-emerge Herbicidal Activity, phytotoxicity rating DIGSA ([23]; Rate 63 g ai/ha): 70 | Post-emerge Herbicidal Activity, phytotoxicity rating DIGSA ([23]; Rate 250 g ai/ha): 90
